Converted amounts (≈) assume the structure as drawn.
Experiments:
Assay type in all cases: functional
Aspergillus niger [1] = experiment: Antifungal activity against Aspergillus niger MTCC 872 by disc diffusion method
Aspergillus fumigatus [2] = experiment: Antifungal activity against Aspergillus fumigatus MTCC 343 by disk diffusion method
Candida albicans [3] = experiment: Antifungal activity against Candida albicans ATCC 24433 by disk diffusion method
Pseudomonas aeruginosa [4] = experiment: Antibacterial activity against Pseudomonas aeruginosa ATCC 25615 by disc diffusion method
Escherichia coli [5] = experiment: Antibacterial activity against Escherichia coli MTCC 739 by disc diffusion method
Bacillus subtilis [6] = experiment: Antibacterial activity against Bacillus subtilis ATCC 6633 by disk diffusion method
Staphylococcus aureus [7] = experiment: Antibacterial activity against Staphylococcus aureus ATCC 9144 by disk diffusion method
Aspergillus niger [8] = experiment: Antifungal activity against Aspergillus niger MTCC 872 by two-fold serial dilution method
Aspergillus fumigatus [9] = experiment: Antifungal activity against Aspergillus fumigatus MTCC 343 by two-fold serial dilution method
Candida albicans [10] = experiment: Antifungal activity against Candida albicans ATCC 24433 by two-fold serial dilution method
Pseudomonas aeruginosa [11] = experiment: Antibacterial activity against Pseudomonas aeruginosa ATCC 25615 by two-fold serial dilution method
Escherichia coli [12] = experiment: Antibacterial activity against Escherichia coli MTCC 739 by two-fold serial dilution method
Bacillus subtilis [13] = experiment: Antibacterial activity against Bacillus subtilis ATCC 6633 by two-fold serial dilution method
Staphylococcus aureus [14] = experiment: Antibacterial activity against Staphylococcus aureus ATCC 9144 by two-fold serial dilution method

| Compound | diameter of the inhibition zone (DIZ) (Aspergillus niger [1]) [mm] | diameter of the inhibition zone (DIZ) (Aspergillus fumigatus [2]) [mm] | diameter of the inhibition zone (DIZ) (Candida albicans [3]) [mm] | diameter of the inhibition zone (DIZ) (Pseudomonas aeruginosa [4]) [mm] | diameter of the inhibition zone (DIZ) (Escherichia coli [5]) [mm] | diameter of the inhibition zone (DIZ) (Bacillus subtilis [6]) [mm] | diameter of the inhibition zone (DIZ) (Staphylococcus aureus [7]) [mm] | MIC (Aspergillus niger [8]) [µg/mL] | MIC (Aspergillus fumigatus [9]) [µg/mL] | MIC (Candida albicans [10]) [µg/mL] | MIC (Pseudomonas aeruginosa [11]) [µg/mL] | MIC (Escherichia coli [12]) [µg/mL] | MIC (Bacillus subtilis [13]) [µg/mL] | MIC (Staphylococcus aureus [14]) [µg/mL] | inhibition zone (IZ) (Aspergillus niger [1]) [mm] | inhibition zone (IZ) (Pseudomonas aeruginosa [4]) [mm] | inhibition zone (IZ) (Escherichia coli [5]) [mm] | inhibition zone (IZ) (Bacillus subtilis [6]) [mm] | inhibition zone (IZ) (Staphylococcus aureus [7]) [mm] |
| --- | --- | --- | --- | --- | --- | --- | --- | --- | --- | --- | --- | --- | --- | --- | --- | --- | --- | --- | --- |
| Nc1ccc(C2=N/C(=N/N=C(/C[n+]3c(-c4ccc(Cl)cc4)cc(C(=O)O)c4ccccc43)c3ccccc3)SC2)cc1.[I-] | 6 | 9 | 7 | 8 | 7 | 7 | 34 | > 100 | > 100 | > 100 | > 100 | > 100 | > 100 | 3.12 |  |  |  |  |  |
| GENTAMICIN |  |  |  |  |  |  |  |  |  |  |  | 25 |  | 6.25 | 18 | 23 | 20 | 22 | 22 |
| O=C(O)c1cc(-c2ccccc2)[n+](C/C(=N/N=C2/N=C(c3ccccc3)CS2)c2ccccc2)c2ccccc12.[I-] | 14 | 12 | 10 | 9 | 9 | 10 | 18 | 12.5 | 25 | > 50 | > 100 | > 100 | > 100 | 25 |  |  |  |  |  |
| Cc1ccc(-c2nc3ccccc3c3c2c(-c2ccccc2)c(-c2ccccc2)n2c(=O)[nH]nc32)cc1 | 6 | 9 | 14 | 9 | 6 | 18 | 11 | > 100 | > 100 | 50 (≈ 104 µM) | > 100 | > 100 | 50 (≈ 104 µM) | 50 (≈ 104 µM) |  |  |  |  |  |
| O=c1[nH]nc2c3c(c(-c4ccc(Cl)cc4)nc4ccccc43)c(-c3ccccc3)c(-c3ccccc3)n12 | 8 | 6 | 24 | 6 | 6 | 11 | 9 | > 100 | > 100 | 12.5 (≈ 25.1 µM) | > 100 | > 100 | > 100 | > 100 |  |  |  |  |  |
| Cc1ccc(-c2nc3ccccc3c3c2c(-c2ccccc2)c(-c2ccccc2)n2c(=S)[nH]nc32)cc1 | 7 | 6 | 6 | 6 | 6 | 19 | 6 | > 100 | > 100 | > 100 | > 100 | > 100 | 25 (≈ 50.5 µM) | > 100 |  |  |  |  |  |
| Nc1ccc(C2=N/C(=N/N=C(/C[n+]3c(-c4ccccc4)cc(C(=O)O)c4ccccc43)c3ccccc3)SC2)cc1.[I-] | 7 | 6 | 36 | 9 | 8 | 9 | 24 | > 100 | > 100 | 3.12 | > 100 | > 100 | > 100 | 6.25 |  |  |  |  |  |
| OC(Cn1cncn1)(Cn1cncn1)c1ccc(F)cc1F [FLUCONAZOLE] |  |  | 21 |  |  |  |  |  |  | 6.25 (≈ 20.4 µM) |  |  |  |  |  |  |  |  |  |
| Cc1ccc(-c2cc(C(=O)O)c3ccccc3[n+]2C/C(=N/N=C2/N=C(c3ccccc3)CS2)c2ccccc2)cc1.[I-] | 7 | 8 | 17 | 8 | 11 | 9 | 14 | > 100 | > 100 | 25 | > 100 | > 100 | > 100 | 25 |  |  |  |  |  |
| O=C(O)c1cc(-c2ccc(Cl)cc2)[n+](C/C(=N/N=C2/N=C(c3ccccc3)CS2)c2ccccc2)c2ccccc12.[I-] | 6 | 6 | 19 | 6 | 6 | 6 | 15 | > 100 | > 100 | 12.5 | > 100 | > 100 | > 100 | 25 |  |  |  |  |  |
| O=c1[nH]nc2c3c(c(-c4ccccc4)nc4ccccc43)c(-c3ccccc3)c(-c3ccccc3)n12 | 6 | 12 | 6 | 12 | 21 | 8 | 8 | > 100 | 25 (≈ 53.8 µM) | > 100 | 50 (≈ 108 µM) | 25 (≈ 53.8 µM) | > 100 | > 100 |  |  |  |  |  |
| S=c1[nH]nc2c3c(c(-c4ccccc4)nc4ccccc43)c(-c3ccccc3)c(-c3ccccc3)n12 | 6 | 7 | 8 | 8 | 18 | 21 | 8 | > 100 | > 100 | > 100 | > 100 | 50 (≈ 104 µM) | 12.5 (≈ 26 µM) | > 100 |  |  |  |  |  |
| S=c1[nH]nc2c3c(c(-c4ccc(Cl)cc4)nc4ccccc43)c(-c3ccccc3)c(-c3ccccc3)n12 | 6 | 6 | 18 | 13 | 7 | 8 | 20 | > 100 | > 100 | 25 (≈ 48.5 µM) | 50 (≈ 97.1 µM) | > 100 | > 100 | 12.5 (≈ 24.3 µM) |  |  |  |  |  |
| Cc1ccc(-c2cc(C(=O)O)c3ccccc3[n+]2C/C(=N/N=C2/N=C(c3ccc(N)cc3)CS2)c2ccccc2)cc1.[I-] | 8 | 10 | 40 | 6 | 6 | 6 | 40 | > 100 | > 50 | 3.12 | > 100 | > 100 | > 100 | 3.12 |  |  |  |  |  |
